Reference: the NIST ThermoML archive (doi:10.1021/je800251v)

Conditions: Liquid

CCCCC(=O)OCC [ethyl pentanoate]
mass density [kg/m3]
Conditions | 298.15 K | 303.15 K | 308.15 K | 313.15 K | 318.15 K | 323.15 K | 328.15 K | 333.15 K
100 kPa | 870.7 | 865.5 | 860.3 | 855 | 849.8 | 844.4 | 839.1 | 833.7
1000 kPa | 871.5 | 866.4 | 861.2 | 855.9 | 850.6 | 845.3 | 840 | 834.7
2000 kPa | 872.4 | 867.4 | 862.1 | 856.9 | 851.7 | 846.4 | 841.1 | 836
2780 kPa | 873 | 868.1 | 862.9 | 857.7 | 852.4 | 847.2 | 842 | 836.9
3000 kPa | 873.2 | 868.3 | 863.1 | 857.9 | 852.7 | 847.4 | 842.3 | 837.1
5000 kPa | 875.1 | 870.1 | 865 | 859.9 | 854.6 | 849.4 | 844.4 | 839.3
10000 kPa | 879.4 | 874.5 | 869.5 | 864.5 | 859.4 | 854.3 | 849.4 | 844.5
15000 kPa | 883.4 | 878.7 | 873.8 | 868.9 | 863.9 | 859 | 854.2 | 849.5
20000 kPa | 887.3 | 882.6 | 877.8 | 873 | 868.2 | 863.4 | 858.7 | 854.1
25000 kPa | 891 | 886.5 | 881.8 | 877 | 872.3 | 867.6 | 863 | 858.6
30000 kPa | 894.6 | 890.2 | 885.6 | 880.9 | 876.3 | 871.7 | 867.1 | 862.9
35000 kPa | 898.1 | 893.8 | 889.2 | 884.6 | 880.1 | 875.5 | 871.1 | 867
